Laboratory results as given in patent US8889887B2, “Pentamethine cyanine fluorescent dyes, preparation methods and uses thereof” (Dalian University of Technology, priority 2011, dated 2014).

Assay: UV absorption and fluorescence emission spectra in different solvents
Format: physicochemical
Settings: for Φ fluorescence quantum yield (single peak): reference Rhodamine B in ethanol
Protocol: Firstly, stock solutions of 4 and 7 in DMSO were prepared respectively. Then sample solutions of 1 μM were prepared by diluting the mother liquors with corresponding chromatography grade solvent. UV absorption and fluorescence emission spectra of the sample solutions in different solvents were measured at room temperature, the results were shown in FIGS. 1A and 1B, respectively.

CCN1/C(=C/C=C/C=C/C2=[N+](CC)c3ccccc3C2(C)C)C(C)(C)c2ccccc21 [ethyl-Cy5, reference compound]
Δλ Stokes Shift (single peak) (DMSO): 13 nm | ε molar extinction coefficient (single peak) (DMSO): 272000 L/cm/mol | λabs maximum absorption wavelength (single peak) (DMSO): 655 nm | λem maximum emission wavelength (single peak) (DMSO): 668 nm | Φ fluorescence quantum yield (single peak) (DMSO): 0.33 | Δλ Stokes Shift (single peak) (THF): 9 nm | ε molar extinction coefficient (single peak) (THF): 227000 L/cm/mol | λabs maximum absorption wavelength (single peak) (THF): 653 nm | λem maximum emission wavelength (single peak) (THF): 662 nm | Φ fluorescence quantum yield (single peak) (THF): 0.37 | Δλ Stokes Shift (single peak) (dichloromethane): 6 nm | ε molar extinction coefficient (single peak) (dichloromethane): 306000 L/cm/mol | λabs maximum absorption wavelength (single peak) (dichloromethane): 661 nm | λem maximum emission wavelength (single peak) (dichloromethane): 671 nm | Φ fluorescence quantum yield (single peak) (dichloromethane): 0.29 | Δλ Stokes Shift (single peak) (ethanol): 11 nm | ε molar extinction coefficient (single peak) (ethanol): 302000 L/cm/mol | λabs maximum absorption wavelength (single peak) (ethanol): 652 nm | λem maximum emission wavelength (single peak) (ethanol): 663 nm | Φ fluorescence quantum yield (single peak) (ethanol): 0.27 | Δλ Stokes Shift (single peak) (methanol): 10 nm | ε molar extinction coefficient (single peak) (methanol): 259000 L/cm/mol | λabs maximum absorption wavelength (single peak) (methanol): 649 nm | λem maximum emission wavelength (single peak) (methanol): 659 nm | Φ fluorescence quantum yield (single peak) (methanol): 0.22 | Δλ Stokes Shift (single peak) (water): 8 nm | ε molar extinction coefficient (single peak) (water): 227000 L/cm/mol | λabs maximum absorption wavelength (single peak) (water): 648 nm | λem maximum emission wavelength (single peak) (water): 656 nm | Φ fluorescence quantum yield (single peak) (water): 0.13
